Entries after “also recorded” stand apart in the source; their conditions may differ.

In data set [1] the test system is CHO (Chinese hamster ovary) cells. The data set can be described thus: Radiotracer metabolic stability, CHO cells (negative control), radio-TLC. The format is in vitro ADME. The following applies: up to 2 h. The method, then:
HepG2 cells were cultured in DMEM GlutaMax (Gibco, Paisley, UK) with 10% fetal calf serum (FCS) and with selective antibiotics (penicillin/streptomycin for wildtype, Zeocin (InvivoGen, San Diego, CA, USA) for CYP1A2, and Blasticidin (Gibco, Carlsbad, CA, USA) for CYP2C19 and CYP3A4 cultures). As a negative control, cultures of CHO cultivated in Ham’s F-12 medium (Gibco) with 10% FCS and 2 mM glutamine were added for the radiotracer experiments. Cells were handled under a laminar flow hood (Thermo Scientific^TM Safe 2020, Langenselbold, Germany) and were split once or twice a week by trypsinization. Cell cultures were stored horizontally in a humidified incubator (Heracell240i) at 37 °C and 5% CO2. During the time of experimental work, the utilized cell lines were regularly checked for mycoplasma. […] Cell density was determined with a cell counter (CASY® Model TT from Schärfe System, Reutlingen, Germany). […]
Incubations with radiotracer compounds were conducted, on the one hand, with radioactive ^18F-labeled compounds alone (time dependency) and, on the other hand, in the presence of 50 µM nonradioactive reference (carrier addition). For the investigation of a time-dependent metabolite formation, 2 µL aliquots were withdrawn from the supernatant, directly spotted onto the TLC plate, and analyzed as described above. […]

The next data set has as its system HepG2 wildtype. The data set can be described thus: Radiotracer metabolic stability, HepG2 wildtype, radio-TLC. The format is in vitro ADME, human. The conditions noted are these: up to 2 h. The method, then: (§1) CYP-overexpressing human hepatocellular carcinoma cells (HepG2) were previously generated on the basis of subcloning human CYP1A2 [18], CYP2C19 [20], and CYP3A4 [21] cDNA into a lentiviral expression vector. The cDNA expression in the resulting vector was controlled by the human cytomegalovirus (CMV) promoter. The lentivirus expression vectors were used to produce recombinant lentivirus particles according to standard methods to infect HepG2 cells. Infected cells were selected with 3 µg/mL blasticidin for CYP2C19 and CYP3A4 and 500 µg/mL zeocin for CYP1A2 overexpression 48 h after infection. Within 3–4 weeks, antibiotic-resistant cell colonies were picked to obtain single cell-derived HepG2 clones. For more detailed information on the generation procedure of CYP-overexpressing HepG2 cells, see Steinbrecht et al..
(§2) HepG2 cells were cultured in DMEM GlutaMax (Gibco, Paisley, UK) with 10% fetal calf serum (FCS) and with selective antibiotics (penicillin/streptomycin for wildtype, Zeocin (InvivoGen, San Diego, CA, USA) for CYP1A2, and Blasticidin (Gibco, Carlsbad, CA, USA) for CYP2C19 and CYP3A4 cultures). As a negative control, cultures of CHO cultivated in Ham’s F-12 medium (Gibco) with 10% FCS and 2 mM glutamine were added for the radiotracer experiments. […] Cell density was determined with a cell counter (CASY® Model TT from Schärfe System, Reutlingen, Germany). […]

Another data set concerns HepG2 CYP2C19. The data set can be described thus: Radiotracer metabolic stability, CYP2C19-overexpressing HepG2 cells. The format is in vitro ADME, human. The protocol: as §1
HepG2 cells were cultured in DMEM GlutaMax (Gibco, Paisley, UK) with 10% fetal calf serum (FCS) and with selective antibiotics (penicillin/streptomycin for wildtype, Zeocin (InvivoGen, San Diego, CA, USA) for CYP1A2, and Blasticidin (Gibco, Carlsbad, CA, USA) for CYP2C19 and CYP3A4 cultures). As a negative control, cultures of CHO cultivated in Ham’s F-12 medium (Gibco) with 10% FCS and 2 mM glutamine were added for the radiotracer experiments. Cells were handled under a laminar flow hood (Thermo Scientific^TM Safe 2020, Langenselbold, Germany) and were split once or twice a week by trypsinization. Cell cultures were stored horizontally in a humidified incubator (Heracell240i) at 37 °C and 5% CO2. During the time of experimental work, the utilized cell lines were regularly checked for mycoplasma. Cells were seeded in duplicates into a 96-well plate (CellStar®) with a density of 3 × 10^5 cells/well and cultured until the next day at 37 °C and 5% CO2. Cell density was determined with a cell counter (CASY® Model TT from Schärfe System, Reutlingen, Germany). Before the addition of substrates, cells were washed twice with Krebs–Henseleit buffer (KHB). The HEPES-supplemented Krebs–Henseleit buffer (pH 7.4, KHB) was freshly prepared using HEPES (5.95 g/L), D-glucose (2.0 g/L), magnesium sulfate (0.141 g/L), potassium dihydrogenphosphate (0.16 g/L), potassium chloride (0.35 g/L), sodium chloride (6.9 g/L), calcium chloride dihydrate (0.373 g/L), and sodium bicarbonate (2.1 g/L), followed by adjustment to pH 7.4 with NaOH. The utilized substances within this study were neither found (see Supplementary Materials, Figure S14) nor reported to be cytotoxic within the utilized concentration range and incubation duration.
Incubations with radiotracer compounds were conducted, on the one hand, with radioactive ^18F-labeled compounds alone (time dependency) and, on the other hand, in the presence of 50 µM nonradioactive reference (carrier addition). For the investigation of a time-dependent metabolite formation, 2 µL aliquots were withdrawn from the supernatant, directly spotted onto the TLC plate, and analyzed as described above. The same procedure was performed for carrier-added samples.
UPLC–MS analyses were performed to verify the degradation behavior of the test compounds and to gain insights into the identity of the formed metabolites. Using radiotracer incubation samples, 40 µL aliquots of the carrier-added incubations were withdrawn followed by addition of 160 µL of ACN and centrifugation (14,000 rpm (18,800–20,800× g), 4 °C, 5 min). Samples were frozen at −20 °C, and activity was allowed to decay before further mass-spectrometric analyses. Additionally, incubations with the nonradioactive references were carried out with 100 nM or 50 µM (according to the carrier-added samples) and analyzed. UPLC–MS/MS was performed using System 2 (55% isocratic elution for quantification of intact compound, or 25–75% gradient for nonradioactive metabolite analysis). The MRM mode was optimized with a solution of respective reference compounds diluted in eluent. […]

The next data set deals with HepG2 CYP3A4. The data set can be described thus: Radiotracer metabolic stability, CYP3A4-overexpressing HepG2 cells. The format is in vitro ADME, human. The conditions noted are these: HepG2 CYP3A4, up to 2 h; radio-TLC. The protocol: as §1, §2
For the next data set, the system named is HepG2 CYP1A2. Kind of data set: Competitive coincubation of [18F]1 with competitors, HepG2 CYP1A2. The following applies: 1 h; without any additional substance; 120–125 nM [18F]1. The protocol: Radio thin-layer chromatography (radio-TLC) was carried out on reversed-phase TLC plates (ALUGRAM RP-18W/UV254 from Macherey-Nagel, Düren, Germany) with a mobile phase of 45% ACN in water containing 0.1% trifluoroacetic acid. The samples (2 µL) were spotted onto the TLC plate. The line of origin and the front line were labeled with 1/5 of the sample activity concentration. To track the Rf value of the intact radiotracer, each TLC was spotted with the intact tracer as reference in the middle. Detection of the activity signals was achieved after 10–30 min development on radioluminographic imaging plates (FUJIFILM, Tokyo, Japan) and subsequent readout with Fuji BAS 5000® or Amersham™ Typhoon™ from GE Healthcare (Uppsala, Sweden). The resulting chromatographic profile was analyzed and integrated with the help of AIDA Image Analysis Software (version 5.1). For data depiction, the fraction of each species (intact radiotracer, metabolite, [^18F]fluoride) was plotted.
Incubations were conducted for up to 2 h in a 96-well plate in KHB with a total incubation volume of 50 µL and an ethanol concentration of 0.4%. For the incubation with radiotracers, an activity of 100–200 kBq/well at the start of the experiment was used.
Our last interest within this study was to test if the tracer itself could function as an indicator for the conversion of other substrates acting via inhibition of or competition with the CYP enzymes. In this regard, alternative substrates were added to the incubation mixtures with [^18F]1. The investigated substrates covered testosterone, caffeine, progesterone, compound 3, tebufelone, and RWJ63556 [44] (10 µM for all substances). Furthermore, the influence of testosterone on the metabolic turnover of [^18F]1 was investigated over a concentration range of 1–50 µM.
Figure 7 Coincubation of [^18F]1 and different competitors with (A) HepG2 CYP1A2 and (B) HepG2 CYP2C19. […] Each competitor/inhibitor was incubated with [^18F]1 for 1 h followed by radio-TLC analysis. Activity concentrations of 94–197 kBq/well (1.9–3.9 MBq/mL) were used at start of experiment, which correspond to a concentration of 120–125 nM. Statistical analysis performed with Dunnett’s multiple comparison (post hoc test) according to the intact tracer amount (* p < 0.05; *** p < 0.001; **** p < 0.0001; n = 4).

For the molecule `Cc1ccc(-c2cc(C[18F])nn2-c2ccc(S(C)(=O)=O)cc2)cc1` [[^18F]1, 3-([^18F]fluoromethyl)-1-[4-(methylsulfonyl)phenyl]-5-(p-tolyl)-1H-pyrazole], the “Metabolic turnover / stability of radiotracer (in words)” value in data set [1] is given as “mainly intact radiotracer was found; also recorded: no metabolic turnover”; in the data set with HepG2 wildtype it was “mainly intact radiotracer was found”; in the data set with HepG2 CYP2C19 (HepG2 CYP2C19, up to 2 h, radio-TLC), “formation of radiometabolites was observed”; in the data set with HepG2 CYP3A4 it was “mainly intact radiotracer was found”. The “Increase of intact tracer amount with carrier addition” value in the data set with HepG2 CYP2C19 (1 h, CA versus without carrier addition) is 10 fold. In addition, the “Amount of intact tracer” value with HepG2 CYP2C19 (1 h, carrier-added (CA), 50 µM 1, radio-TLC) was 67.2%; in the data set on HepG2 CYP2C19 (1 h, without carrier addition, 24 MBq/mL (460 nM), radio-TLC) it was 6.6%. Also, the “Intact tracer in supernatant” value in the data set on HepG2 CYP2C19 (1 h incubation, 2–4 MBq/mL (28–187 nM), radio-TLC) is on record as 1.3%. Also, the “Intact tracer [18F]1 remaining” value with HepG2 CYP1A2 is 33%.

The record behind these values is PMC9368227, “Investigation of Radiotracer Metabolic Stability In Vitro with CYP-Overexpressing Hepatoma Cell Lines” (Cells, 2022).
